Converted amounts (≈) assume the structure as drawn.
Details: buffer; pH 7.4; 6.0 h; 150.0 µM
In the case of `Nc1cc(-c2nc(Nc3ccc(F)c(F)c3)c3ccccc3n2)ccn1`, the solubility kinetic is reported as less than 1 µg/mL. With `COc1cccc(CNc2ccc(S(=O)(=O)Nc3cccc4ccncc34)cc2)c1O` the solubility kinetic was less than 1 µg/mL. Work on `O=S(=O)(Nc1ccccc1)c1ccc(NCc2ccc(Br)cc2O)cc1` yielded a solubility kinetic of 1.42 µg/mL (≈ 3.27 µM). In the case of `Cc1c(Cl)cccc1NC(=O)CNS(=O)(=O)c1cccs1`, the solubility kinetic is reported as greater than 51 µg/mL. Compound `Cc1nn(CCc2nc(-c3ccc(OC(F)F)cc3)cs2)c2[nH]c(=O)cc(C(F)(F)F)c12` has a solubility kinetic of less than 1 µg/mL. With `CN(C)CCNC(=O)c1nc2nc(-c3ccccc3)c(-c3cccc(F)c3)cc2n1C` the solubility kinetic was 51.3 µg/mL (≈ 123 µM). `Cc1ccc(-c2csc(N3CCC(C(N)=O)CC3)n2)cc1` showed a solubility kinetic of 32.9 µg/mL (≈ 109 µM). With `CC(=O)c1c(C)[nH]c(C(=O)Nc2cccc(S(=O)(=O)N3CCOCC3)c2)c1C` the solubility kinetic was greater than 60 µg/mL. In the case of `N#CC1CCN(c2nc(-c3ccc(Br)cc3)cs2)CC1`, the solubility kinetic is reported as 1.46 µg/mL (≈ 4.19 µM). In the case of `C#CCNC(=O)c1nc(-c2ccc([S+](C)(=O)[O-])cc2)c2cnccn12`, the solubility kinetic is reported as less than 1 µg/mL. For `O=C(Nc1ccc(S(=O)(=O)N2CCN(Cc3ccccc3)CC2)cc1)c1cnccn1`, the solubility kinetic was less than 1 µg/mL. For `CCn1c(C)c(C(C)=O)c(C)c1C(=O)Nc1cccc([S+](=O)([O-])N(C)C)c1`, the solubility kinetic was 43.4 µg/mL (≈ 111 µM). Compound `COc1ccc(NC(=O)c2[nH]c(C)c(C(C)=O)c2C)cc1S(=O)(=O)N(C)C` has a solubility kinetic of 3.68 µg/mL (≈ 9.34 µM). For `O=C(Nc1nc(-c2ccccc2)cs1)c1ccncc1NS(=O)(=O)c1ccc(-c2ccccc2)cc1`, the solubility kinetic was less than 1 µg/mL. In the case of `Cc1ccccc1C(=O)N1CCc2cc(-c3nc(NC(=O)Cc4ccc5ccccc5c4)sc3C)ccc21`, the solubility kinetic is reported as less than 1 µg/mL. With `CCOc1ccc(CCNC(=O)c2cc3sccc3n2Cc2ccccn2)cc1OCC` the solubility kinetic was less than 1 µg/mL. `Cc1ccc(-c2csc(CCn3nc(C)c4c(C(F)(F)F)cc(=O)[nH]c43)n2)cc1` showed a solubility kinetic of less than 1 µg/mL. For `Cc1ccccc1C(=O)Nc1nc2c(s1)CC(C(C)(C)C)CC2` (centres undefined), the solubility kinetic was less than 1 µg/mL. `O=C(Cc1ccc(Cl)c(Cl)c1)Nc1ccc(S(=O)(=O)Nc2ccon2)cc1` gave a solubility kinetic greater than 100 µg/mL. With `COc1cccc(NS(=O)(=O)c2ccc(C)cc2)c1C(=O)Nc1nc(-c2ccccc2)cs1` the solubility kinetic was less than 1 µg/mL. In the case of `CC(C)(O)/C=C\C(=O)[C@](C)(O)[C@H]1[C@H](O)C[C@]2(C)[C@@H]3CC=C4[C@@H](C=C(O)C(=O)C4(C)C)[C@]3(C)C(=O)C[C@@]12C`, the solubility kinetic is reported as greater than 51 µg/mL. `O=C(c1ccco1)N1CCN(c2nc(-c3ccc(Br)cc3)cs2)CC1` showed a solubility kinetic of 2.3 µg/mL (≈ 5.5 µM). `CN(C)c1ccc(-c2cc[nH]c(=O)c2N)cc1` showed a solubility kinetic greater than 34 µg/mL. In the case of `Cc1nc2ccc(NC(=O)c3cc(S(=O)(=O)N(C)c4ccccc4)ccc3Cl)cc2s1`, the solubility kinetic is reported as less than 1 µg/mL. In the case of `CCc1cccc(CC)c1-n1c(C=C(C)C)c(C(=O)N2CCNCC2)cc(-c2nc(-c3ccc(C(F)(F)F)cc3)cs2)c1=O`, the solubility kinetic is reported as less than 1 µg/mL. `CCCCNc1oc(-c2cccc3ccccc23)nc1C#N` gave a solubility kinetic of less than 1 µg/mL. `COc1cccc(CNc2ccc(S(=O)(=O)Nc3ncccn3)cc2)c1O` showed a solubility kinetic greater than 57 µg/mL. `CC(C)c1ccccc1-c1nc(NCc2ccc(-c3cccnc3)cc2)c2ccccc2n1` showed a solubility kinetic of less than 1 µg/mL. With `Cc1ccc(C(=O)Nc2cccc(C(F)(F)F)c2)cc1Nc1nc(-c2cccnc2)nc2c1cnn2C` the solubility kinetic was less than 1 µg/mL. With `Cc1ccc(-c2ccc(CNc3nc(-c4ccccc4C(C)C)nc4ccccc34)cc2)cn1` the solubility kinetic was less than 1 µg/mL. For `COc1ccc(-c2nc3c(c(SCC(=O)Nc4ccc(C(=O)O)cc4)n2)Cc2ccccc2O3)cc1`, the solubility kinetic was 1.45 µg/mL (≈ 2.9 µM). With `O=C(O)c1cnc(-c2ccc(F)cc2)nc1-c1ccncc1` the solubility kinetic was greater than 29 µg/mL. `O=C(NCc1cccnc1)c1nc(-c2ccc(Cl)nc2)c2cnccn12` showed a solubility kinetic of 4.69 µg/mL (≈ 12.9 µM). Work on `O=C1CCCC2=C1C1(CCCC1)N=C(Nc1nc3cc(Cl)ccc3o1)N2` yielded a solubility kinetic of less than 1 µg/mL. Compound `O=[S+]([O-])(Nc1ccc(N2CCNCC2)cc1)c1ccc(NCc2ccc(Br)cc2O)cc1` has a solubility kinetic of 20.1 µg/mL (≈ 38.8 µM). With `CN1CCN(C(=O)c2ccc3cc(CCNc4ncnc5ccc(C#N)cc45)ccc3c2)CC1` the solubility kinetic was 49.7 µg/mL (≈ 110 µM). `CC(C)Oc1cccc(-c2cnc(N3CCC(C(N)=O)CC3)s2)c1` gave a solubility kinetic of 1.43 µg/mL (≈ 4.15 µM). `COc1ccc2[nH]c(=O)c(-c3noc(-c4ccccc4)n3)cc2c1` showed a solubility kinetic of less than 1 µg/mL. In the case of `CCN(CC)S(=O)(=O)c1ccc(N2CCCC2)c(NS(=O)(=O)c2ccccc2)c1`, the solubility kinetic is reported as less than 1 µg/mL. In the case of `O=C(Nc1ccc(Cl)c(S(=O)(=O)N2CCOCC2)c1)c1ccc(S(=O)(=O)N2CCCCC2)cc1`, the solubility kinetic is reported as less than 1 µg/mL. For `Cc1nc(Nc2ncc(C(=O)Nc3c(C)cccc3Cl)s2)cc(N2CCN(CCO)CC2)n1`, the solubility kinetic was 25.6 µg/mL (≈ 52.4 µM). With `Cc1ccc(S(=O)(=O)Nc2cnccc2C(=O)Nc2nc(-c3cccnc3)cs2)cc1` the solubility kinetic was greater than 67 µg/mL. `Cc1cnc(-c2ccccc2C(F)F)nc1NCc1ccc(-c2cccnc2)cc1` gave a solubility kinetic of 1.07 µg/mL (≈ 2.66 µM). Compound `COc1ccc(-c2ccc3ncc(Nc4cccnc4OC)n3n2)cn1` has a solubility kinetic of 5.33 µg/mL (≈ 15.3 µM). Compound `O=C(NC1CCN(c2cc(-c3ccc(Cl)cc3)[nH]n2)C1)c1ccccc1` (centres undefined) has a solubility kinetic of less than 1 µg/mL. Compound `COc1ccc(C2Nc3ccccc3C(=O)N2Cc2ccco2)cc1COc1c(C)cc(NC(C)=O)cc1C` (centres undefined) has a solubility kinetic of 1.53 µg/mL (≈ 2.92 µM). Compound `Cc1cc(NC(=O)c2ccc(NC(=O)Cc3ccc(Cl)c(Cl)c3)cc2)no1` has a solubility kinetic of 1.43 µg/mL (≈ 3.55 µM). With `c1ccc2c(Nc3ccon3)nc(-c3ccncc3)nc2c1` the solubility kinetic was less than 1 µg/mL. For `CCOC(=O)c1nn(-c2ccccc2)c(=O)c2c(N)scc12`, the solubility kinetic was 4.02 µg/mL (≈ 12.7 µM). `O=C(Nc1ccccc1O)c1ccc(NC(=O)C2CC2)cc1` showed a solubility kinetic of 1.75 µg/mL (≈ 5.92 µM). In the case of `Cc1ccnc(NC(=S)N2CCN(c3cccc(C(F)(F)F)c3)CC2)c1`, the solubility kinetic is reported as 9.68 µg/mL (≈ 25.4 µM). With `Cn1cc(-c2nc(Nc3ccc(F)c(F)c3)c3ccccc3n2)cn1` the solubility kinetic was less than 1 µg/mL. Compound `c1ccc(-c2ccc(CNc3nc(-c4ccccn4)nnc3-c3ccccc3)cc2)cc1` has a solubility kinetic of less than 1 µg/mL. In the case of `O=S(=O)(Nc1ccc2ccccc2c1)c1ccc(NCc2ccc(Br)cc2O)cc1`, the solubility kinetic is reported as less than 1 µg/mL. In the case of `Cn1nnnc1Sc1ncnc2sccc12`, the solubility kinetic is reported as greater than 37 µg/mL. `COc1ccccc1C(=O)N1CCc2cc(-c3nc(NC(=O)Cc4ccc5c(c4)OCO5)sc3C)ccc21` showed a solubility kinetic of less than 1 µg/mL. Work on `CCOc1ccc(CCNC(=O)c2cc3sccc3n2C)cc1OCC` yielded a solubility kinetic of 8.05 µg/mL (≈ 21.6 µM). For `Cc1ccc(S(=O)(=O)Nc2nc3ccc(C)cc3nc2Nc2ccc3c(c2)OCO3)cc1`, the solubility kinetic was greater than 66 µg/mL. Compound `COc1ccc(CNC(=O)CCCn2nc(C)c3c(C)n(-c4ccc(C)cc4)nc3c2=O)cc1OC` has a solubility kinetic greater than 48 µg/mL. `COc1ccc(C(=O)N2CCCC(c3nn(-c4ccc(OC)cc4)c(=O)[nH]3)C2)cc1` (centres undefined) gave a solubility kinetic greater than 60 µg/mL. Work on `FC(F)(F)c1ccc(N2CCN(C(=S)Nc3ccccn3)CC2)cc1` yielded a solubility kinetic of 8.21 µg/mL (≈ 22.4 µM). `O=C(NCCc1ccccn1)C1CC(=O)N(c2n[nH]c3cc(Br)ccc23)C1` (centres undefined) gave a solubility kinetic of 5.42 µg/mL (≈ 12.7 µM). Work on `CCOC(=O)c1c(NC(=O)CN2CCCCC2)sc2c1CCN(C(=O)OCC)C2` yielded a solubility kinetic of 27.6 µg/mL (≈ 65.2 µM). With `C[S+](=O)([O-])c1ccc(-c2nc(C(=O)N3CCOCC3)n3ccccc23)cc1` the solubility kinetic was greater than 57 µg/mL. `O=C(NC1CCCCC1)N1Cc2[nH]cnc2C[C@H]1c1nc(-c2cccc([N+](=O)[O-])c2)no1` gave a solubility kinetic of 14.2 µg/mL (≈ 32.5 µM). For `O=c1[nH]c(N2CCOCC2)nc2c1CCN(Cc1ccc(Cl)cc1F)CC2`, the solubility kinetic was greater than 58 µg/mL. `O=c1[nH]c(C2CCN(S(=O)(=O)c3ccc4c(c3)OCCO4)CC2)nc2c1nnn2Cc1c(F)cccc1Cl` gave a solubility kinetic of less than 1 µg/mL. `COc1ccc(Nc2cc3c(nc2OC)nc(CCc2ccccc2)n3C)cn1` showed a solubility kinetic of 22.4 µg/mL (≈ 57.5 µM). `COc1ccc(NC(=O)c2ccccc2)cc1S(=O)(=O)Nc1ccc(Br)cc1` gave a solubility kinetic of less than 1 µg/mL. `Nc1nc2c(s1)C(c1ccc(F)c(F)c1)CC(=O)N2` (centres undefined) showed a solubility kinetic greater than 42 µg/mL. With `Cc1ncc2c(c1CNC(=O)Cn1cnc3ccccc3c1=O)CCNC2` the solubility kinetic was 28.1 µg/mL (≈ 77.2 µM). With `CN(C)CCOc1ccc(/C(=C(/CCCl)c2ccccc2)c2ccccc2)cc1` the solubility kinetic was less than 1 µg/mL. `Cc1c(NC2=C(Cl)C(=O)N(c3ccccc3)C2=O)c(=O)n(-c2ccccc2)n1C` showed a solubility kinetic of less than 1 µg/mL. For `CCOc1ccccc1C(=O)Nc1ccncc1C(=O)Nc1cccc(S(=O)(=O)C(F)(F)F)c1`, the solubility kinetic was less than 1 µg/mL. Compound `Cc1ccc(NC(=O)c2cc(-c3ccc[nH]3)n[nH]2)cc1F` has a solubility kinetic greater than 28 µg/mL. Compound `CCOc1ccc(-c2cn3c(n2)sc2cc(C(=O)NCCCN(CC)CC)ccc23)cc1` has a solubility kinetic greater than 67 µg/mL. Compound `Cc1cc(C)cc(NS(=O)(=O)c2ccc3[nH]cc(C(=O)NCc4ccco4)c(=O)c3c2)c1` has a solubility kinetic of 2.87 µg/mL (≈ 6.35 µM). Compound `COc1cccc(C(=O)Nc2nc(-c3nnn(-c4cc(C)ccc4C)c3C)ns2)c1` has a solubility kinetic of 1.2 µg/mL (≈ 2.86 µM). `NCC(=O)Nc1ccc(Cl)cc1C(=O)c1ccc[nH]1` gave a solubility kinetic greater than 41 µg/mL. Work on `Cc1ccccc1NC(=O)Nc1cccs1` yielded a solubility kinetic greater than 34 µg/mL. In the case of `Cc1cnc(-c2ccccc2C2CC2)nc1NCc1ccc(-c2cccnc2)cc1`, the solubility kinetic is reported as less than 1 µg/mL. For `CC(C)(C)c1ccc(C(=O)N2CC(=O)Nc3ccc(F)cc3C2c2ccc(F)cc2)cc1` (centres undefined), the solubility kinetic was less than 1 µg/mL. In the case of `Cc1cc(NS(=O)(=O)c2ccc(NC(=O)Cc3ccc(F)c(Cl)c3)cc2)no1`, the solubility kinetic is reported as greater than 63 µg/mL. In the case of `CC(C)(C)C1CCc2nc(NC(=O)c3cccc(Cl)c3)sc2C1` (centres undefined), the solubility kinetic is reported as less than 1 µg/mL. `COC(=O)c1ccc(NS(=O)(=O)c2c(C)nc3sccn3c2=O)cc1` showed a solubility kinetic greater than 56 µg/mL. Work on `CN(C)CCOC1=Cc2ccccc2Sc2ccc(Cl)cc21` yielded a solubility kinetic of 26 µg/mL (≈ 78.4 µM). Work on `c1ccc(-c2nc(N3CCCCCC3)c3ccccc3n2)nc1` yielded a solubility kinetic greater than 45 µg/mL. `CC(=O)c1c(C)[nH]c(C(=O)Nc2cccc([S+](=O)([O-])Nc3ccccn3)c2)c1C` gave a solubility kinetic greater than 61 µg/mL. With `O=C(NCc1ccccc1)c1nc(S(=O)(=O)Cc2ccc(F)cc2)ncc1Cl` the solubility kinetic was less than 1 µg/mL. With `Cc1ccc2oc(NC3=NC4(CCCC4)C4=C(CCCC4=O)N3)nc2c1` the solubility kinetic was less than 1 µg/mL. Work on `COC(=O)CNC(=O)c1nc(-c2ccccc2OC)c2ccccn12` yielded a solubility kinetic greater than 60 µg/mL. With `COC(=O)c1ccnc(NC(=S)N2CCN(c3cccc(C(F)(F)F)c3)CC2)c1` the solubility kinetic was 2.19 µg/mL (≈ 5.17 µM). With `CCc1ccc(-n2c(=O)c3cccnc3n2CC(=O)Nc2cc(OC)ccc2OC)cc1` the solubility kinetic was less than 1 µg/mL. For `CC1(COc2ccc3c(c2)ncn3-c2ccc3cccc(N4CCC(N)CC4)c3n2)COC1`, the solubility kinetic was 36.8 µg/mL (≈ 82.9 µM). `COc1ccc(-c2csc(N3CCC(C(N)=O)CC3)n2)cc1OC` gave a solubility kinetic of 17.5 µg/mL (≈ 50.5 µM). Compound `Cc1ccc(OCCn2c(CCNC(=O)c3ccccc3Br)nc3ccccc32)cc1` has a solubility kinetic of less than 1 µg/mL. In the case of `CC1Cc2cc(S(=O)(=O)NCc3ccc(N(C)C)cc3)ccc2N1C(=O)C1CCC1` (centres undefined), the solubility kinetic is reported as 3.08 µg/mL (≈ 7.2 µM). `CC(=O)Nc1cccc(-c2csc(Nc3cc(C)ccn3)n2)c1` showed a solubility kinetic of less than 1 µg/mL. In the case of `O=C(Nc1ccccc1)C1CC(=O)N(c2n[nH]c3cc(Br)ccc23)C1` (centres undefined), the solubility kinetic is reported as less than 1 µg/mL.
